Assay results: PubChem BioAssay AID256 (DTP/NCI, 2004)
Where “and” joins values, the source holds several entries; their conditions need not be identical. Identical values can stand only once. Inconclusive results and toxic doses are left out.

System: CD2F1 mice, L1210 leukemia ip, survival T/C
Assay: NCI In Vivo Anticancer Drug Screen. Data for tumor model L1210 Leukemia (intraperitoneal) in CD2F1 (CDF1) mice
Conditions: higher = longer survival
Method in brief: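 Activity against a transplanted murine tumor was judged by comparing the compound group with a vehicle group. The outcome in the treated animals was divided by that in the controls.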

[1] = endpoint: mean survival time, dose: 100.0 mg/kg/injection, schedule: Q04DX003 (ip), vehicle: saline
[2] = endpoint: mean survival time, dose: 200.0 mg/kg/injection, schedule: Q04DX003 (ip), vehicle: saline
[3] = endpoint: mean survival time, dose: 400.0 mg/kg/injection, schedule: Q04DX003 (ip), vehicle: saline
[4] = endpoint: mean survival time, dose: 25.0 mg/kg/injection, schedule: Q04DX002 (ip), vehicle: saline with Tween-80
[5] = endpoint: mean survival time, dose: 50.0 mg/kg/injection, schedule: Q04DX002 (ip), vehicle: saline with Tween-80
[6] = endpoint: mean survival time, dose: 100.0 mg/kg/injection, schedule: Q04DX002 (ip), vehicle: saline with Tween-80
[7] = endpoint: mean survival time, dose: 200.0 mg/kg/injection, schedule: Q04DX002 (ip), vehicle: saline with Tween-80
[8] = endpoint: mean survival time, dose: 100.0 mg/kg/injection, schedule: Q01DX001 (ip), vehicle: saline
[9] = endpoint: mean survival time, dose: 200.0 mg/kg/injection, schedule: Q01DX001 (ip), vehicle: saline
[10] = endpoint: mean survival time, dose: 400.0 mg/kg/injection, schedule: Q01DX001 (ip), vehicle: saline
[11] = endpoint: mean survival time, dose: 50.0 mg/kg/injection, schedule: Q01DX009 (ip), vehicle: saline
[12] = endpoint: mean survival time, dose: 100.0 mg/kg/injection, schedule: Q01DX009 (ip), vehicle: saline
[13] = endpoint: mean survival time, dose: 100.0 mg/kg/injection, schedule: Q04DX003 (ip), vehicle: saline with Tween-80
[14] = endpoint: mean survival time, dose: 200.0 mg/kg/injection, schedule: Q01DX009 (ip), vehicle: saline
[15] = endpoint: mean survival time, dose: 200.0 mg/kg/injection, schedule: Q04DX003 (ip), vehicle: saline with Tween-80
[16] = endpoint: mean survival time, dose: 100.0 mg/kg/injection, schedule: Q01DX009 (ip), vehicle: saline with Tween-80
[17] = endpoint: mean survival time, dose: 24.0 mg/kg/injection, schedule: Q01DX001 (ip), vehicle: distilled water + Tween-80
[18] = endpoint: mean survival time, dose: 48.0 mg/kg/injection, schedule: Q01DX001 (ip), vehicle: distilled water + Tween-80

## CC(C)NC(=O)/C=C/C(=O)O
[1]
  T/C: 100 % of control
[2]
  T/C: 100 % of control
[3]
  T/C: 100 % of control

## CN=C(N)N/N=C(\C)c1ccc2c(c1)Cc1cc(/C(C)=N/NC(N)=NC)ccc1-2
endpoint: median survival time, dose: 0.37 mg/kg/injection, schedule: Q01DX009 (ip), vehicle: saline with Tween-80
  T/C: 118 % of control and 124 % of control
endpoint: median survival time, dose: 3.0 mg/kg/injection, schedule: Q01DX009 (ip), vehicle: saline with Tween-80
  T/C: 121 % of control
endpoint: median survival time, dose: 6.0 mg/kg/injection, schedule: Q01DX009 (ip), vehicle: saline with Tween-80
  T/C: 92 % of control and 95 % of control

## C=CN
[4]
  T/C: 95 % of control
[5]
  T/C: 106 % of control
[6]
  T/C: 98 % of control
[7]
  T/C: 98 % of control

## Cc1nc(-c2cccc(Cl)c2)oc1-c1ccccc1
[6]
  T/C: 115 % of control
[7]
  T/C: 121 % of control

## CCS(=O)(=O)C1(S(=O)(=O)CC)CCCCC1
[8]
  T/C: 102 % of control
[9]
  T/C: 102 % of control
[10]
  T/C: 102 % of control

## CC(NC(=O)CCl)C(=O)O (stereo unspecified)
[1]
  T/C: 94 % of control
[2]
  T/C: 100 % of control

## Cc1cc(C(O)(C(=O)O)c2ccccc2)cc(C)c1C (stereo unspecified)
endpoint: mean survival time, dose: 75.0 mg/kg/injection, schedule: Q01DX001 (ip), vehicle: other
  T/C: 100 % of control
endpoint: mean survival time, dose: 150.0 mg/kg/injection, schedule: Q01DX001 (ip), vehicle: other
  T/C: 90 % of control
endpoint: mean survival time, dose: 300.0 mg/kg/injection, schedule: Q01DX001 (ip), vehicle: other
  T/C: 105 % of control

## Oc1ccc(Sc2ccc(O)cc2O)c(O)c1
[1]
  T/C: 101 % of control
[2]
  T/C: 103 % of control
[3]
  T/C: 93 % of control

## CCCCC/C(C)=N\O
[11]
  T/C: 98 % of control
[8]
  T/C: 104 % of control
[12]
  T/C: 98 % of control
[13]
  T/C: 103 % of control
[9]
  T/C: 95 % of control
[14]
  T/C: 101 % of control
[15]
  T/C: 97 % of control
[10]
  T/C: 98 % of control

## O=C(O)CCCCCCCCC1CC(F)(F)C(F)(F)S1 (stereo unspecified)
[16]
  T/C: 98 % of control
endpoint: mean survival time, dose: 200.0 mg/kg/injection, schedule: Q01DX009 (ip), vehicle: saline with Tween-80
  T/C: 92 % of control
endpoint: mean survival time, dose: 400.0 mg/kg/injection, schedule: Q01DX009 (ip), vehicle: saline with Tween-80
  T/C: 95 % of control

## OCCCN1CCCCC1CO (stereo unspecified)
endpoint: mean survival time, dose: 12.5 mg/kg/injection, schedule: Q01DX009 (ip), vehicle: saline
  T/C: 101 % of control and 103 % of control
endpoint: mean survival time, dose: 25.0 mg/kg/injection, schedule: Q01DX009 (ip), vehicle: saline
  T/C: 98 % of control and 100 % of control
[11]
  T/C: 97 % of control and 98 % of control
[12]
  T/C: 97 % of control and 98 % of control
[14]
  T/C: 98 % of control
endpoint: mean survival time, dose: 400.0 mg/kg/injection, schedule: Q01DX009 (ip), vehicle: saline
  T/C: 91 % of control and 97 % of control
endpoint: median survival time, dose: 400.0 mg/kg/injection, schedule: Q01DX009 (ip), vehicle: saline
  T/C: 103 % of control
endpoint: median survival time, dose: 800.0 mg/kg/injection, schedule: Q01DX009 (ip), vehicle: saline
  T/C: 97 % of control

## COc1ccc(OC)c(-c2csc(=O)s2)c1
endpoint: mean survival time, dose: 25.0 mg/kg/injection, schedule: Q04DX002 (ip), vehicle: Klucel (hydroxypropylcellulose) (HPC)
  T/C: 107 % of control
endpoint: mean survival time, dose: 50.0 mg/kg/injection, schedule: Q04DX002 (ip), vehicle: Klucel (hydroxypropylcellulose) (HPC)
  T/C: 96 % of control
endpoint: mean survival time, dose: 100.0 mg/kg/injection, schedule: Q04DX002 (ip), vehicle: Klucel (hydroxypropylcellulose) (HPC)
  T/C: 102 % of control
endpoint: mean survival time, dose: 200.0 mg/kg/injection, schedule: Q04DX002 (ip), vehicle: Klucel (hydroxypropylcellulose) (HPC)
  T/C: 102 % of control
endpoint: mean survival time, dose: 400.0 mg/kg/injection, schedule: Q04DX002 (ip), vehicle: Klucel (hydroxypropylcellulose) (HPC)
  T/C: 94 % of control

## COC(=O)c1cc(N(CCCl)CCCl)ccc1N=Nc1ccc([N+](=O)[O-])cc1
endpoint: mean survival time, dose: 100.0 mg/kg/injection, schedule: Q04DX003 (ip), vehicle: Klucel (hydroxypropylcellulose) (HPC)
  T/C: 109 % of control
endpoint: mean survival time, dose: 200.0 mg/kg/injection, schedule: Q04DX003 (ip), vehicle: Klucel (hydroxypropylcellulose) (HPC)
  T/C: 115 % of control
endpoint: mean survival time, dose: 400.0 mg/kg/injection, schedule: Q04DX003 (ip), vehicle: Klucel (hydroxypropylcellulose) (HPC)
  T/C: 117 % of control

## O=[N+]([O-])c1ccc(OCc2ccccc2)nc1
endpoint: mean survival time, dose: 100.0 mg/kg/injection, schedule: Q01DX001 (ip), vehicle: saline with Tween-80
  T/C: 86 % of control
endpoint: mean survival time, dose: 200.0 mg/kg/injection, schedule: Q01DX001 (ip), vehicle: saline with Tween-80
  T/C: 100 % of control
endpoint: mean survival time, dose: 400.0 mg/kg/injection, schedule: Q01DX001 (ip), vehicle: saline with Tween-80
  T/C: 93 % of control

## Cc1ccc(S(=O)(=O)NN2CCOC2=O)cc1
endpoint: mean survival time, dose: 50.0 mg/kg/injection, schedule: Q01DX009 (ip), vehicle: Klucel (hydroxypropylcellulose) (HPC)
  T/C: 100 % of control
endpoint: mean survival time, dose: 100.0 mg/kg/injection, schedule: Q01DX009 (ip), vehicle: Klucel (hydroxypropylcellulose) (HPC)
  T/C: 91 % of control
endpoint: mean survival time, dose: 200.0 mg/kg/injection, schedule: Q01DX009 (ip), vehicle: Klucel (hydroxypropylcellulose) (HPC)
  T/C: 100 % of control

## CCOC(=O)C[S+](C)C
endpoint: mean survival time, dose: 75.0 mg/kg/injection, schedule: Q01DX001 (ip), vehicle: saline
  T/C: 90 % of control
endpoint: mean survival time, dose: 150.0 mg/kg/injection, schedule: Q01DX001 (ip), vehicle: saline
  T/C: 93 % of control

## CCN=NNc1ccc(C)cc1
endpoint: mean survival time, dose: 50.0 mg/kg/injection, schedule: Q01DX009 (ip), vehicle: saline with Tween-80
  T/C: 114 % of control
[16]
  T/C: 106 % of control
[13]
  T/C: 102 % of control
[15]
  T/C: 100 % of control

## COc1ccccc1N=Nc1c(O)n(-c2ccccc2OC)c(=S)n(-c2ccc(C)cc2)c1=O
[4]
  T/C: 90 % of control
[5]
  T/C: 90 % of control
[6]
  T/C: 90 % of control

## CO[C@]12[C@@H](COC(N)=O)C3=C(C(=O)C(C)=C(NCC4CCCO4)C3=O)N1C[C@@H]1[C@H]2N1C (stereo partly specified)
endpoint: mean survival time, dose: 1.5 mg/kg/injection, schedule: Q01DX001 (ip), vehicle: saline with Tween-80
  T/C: 102 % of control
endpoint: mean survival time, dose: 3.0 mg/kg/injection, schedule: Q01DX001 (ip), vehicle: saline with Tween-80
  T/C: 98 % of control
endpoint: mean survival time, dose: 6.0 mg/kg/injection, schedule: Q01DX001 (ip), vehicle: saline with Tween-80
  T/C: 104 % of control
endpoint: mean survival time, dose: 12.0 mg/kg/injection, schedule: Q01DX001 (ip), vehicle: saline with Tween-80
  T/C: 104 % of control
[17]
  T/C: 114 % of control
endpoint: mean survival time, dose: 24.0 mg/kg/injection, schedule: Q01DX001 (ip), vehicle: saline with Tween-80
  T/C: 116 % of control
endpoint: mean survival time, dose: 25.0 mg/kg/injection, schedule: Q01DX001 (ip), vehicle: distilled water + Tween-80
  T/C: 121 % of control
[18]
  T/C: 124 % of control
endpoint: mean survival time, dose: 100.0 mg/kg/injection, schedule: Q01DX001 (ip), vehicle: distilled water + Tween-80
  T/C: 113 % of control

## COc1ccc(C(=O)CC(=O)NC(=O)c2ccc(OC)cc2)cc1
endpoint: mean survival time, dose: 100.0 mg/kg/injection, schedule: Q01DX001 (ip), vehicle: other
  T/C: 96 % of control
endpoint: mean survival time, dose: 200.0 mg/kg/injection, schedule: Q01DX001 (ip), vehicle: other
  T/C: 97 % of control
endpoint: mean survival time, dose: 400.0 mg/kg/injection, schedule: Q01DX001 (ip), vehicle: other
  T/C: 96 % of control

## C#CCNC1=C(C)C(=O)C2=C(C1=O)[C@H](COC(N)=O)[C@]1(OC)[C@@H]3N[C@@H]3CN21
endpoint: mean survival time, dose: 1.5 mg/kg/injection, schedule: Q01DX001 (ip), vehicle: distilled water + Tween-80
  T/C: 112 % of control
endpoint: mean survival time, dose: 3.0 mg/kg/injection, schedule: Q01DX001 (ip), vehicle: distilled water + Tween-80
  T/C: 120 % of control and 102 % of control
endpoint: mean survival time, dose: 6.0 mg/kg/injection, schedule: Q01DX001 (ip), vehicle: distilled water + Tween-80
  T/C: 110 % of control
[17]
  T/C: 186 % of control
[18]
  T/C: 87 % of control
endpoint: median survival time, dose: 6.0 mg/kg/injection, schedule: Q01DX009 (ip), vehicle: distilled water + Tween-80
  T/C: 166 % of control
endpoint: median survival time, dose: 6.25 mg/kg/injection, schedule: Q01DX009 (ip), vehicle: distilled water + Tween-80
  T/C: 178 % of control
endpoint: median survival time, dose: 12.5 mg/kg/injection, schedule: Q01DX009 (ip), vehicle: distilled water + Tween-80
  T/C: 101 % of control
endpoint: median survival time, dose: 25.0 mg/kg/injection, schedule: Q01DX009 (ip), vehicle: distilled water + Tween-80
  T/C: 92 % of control
